Test results taken from ChEMBL document CHEMBL1157662, “Antimalarial and antileishmanial activities of histone deacetylase inhibitors with triazole-linked cap group” (Bioorg Med Chem, 2010).
In brackets after ≈: the same amount, converted by molar mass. Activity calls are given as the source filed them. No cut-off for these calls is given here.

Columns and labels:
Leishmania donovani [1] = assay: Antileishmanial activity against Leishmania donovani promastigotes after 72 hrs by alamar blue assay; format: functional, organism-based
Plasmodium falciparum [2] = assay: microbe, parasite or virus in culture; format: functional, organism-based, W2, Vero; conditions: Plasmodium falciparum, W2, Vero, 72 h; read-out: IC50
Description: Antimalarial activity against chloroquine-resistant Plasmodium falciparum W2 infected in African green monkey (Cercopithecus aethiops) Vero cells assessed as parasite LDH activity after 72 hrs by Malstat reagent method

Vero = assay: Cytotoxicity against african green monkey Vero cells after 1 to 2 days by neutral red assay; format: ADME, cell-based, Chlorocebus sabaeus
Plasmodium falciparum [3] = assay: microbe, parasite or virus in culture; conditions: D6, Vero, 72 h
Description: Antimalarial activity against chloroquine-sensitive Plasmodium falciparum D6 infected in African green monkey (Cercopithecus aethiops) Vero cells assessed as parasite LDH activity after 72 hrs by Malstat reagent method

[4] = Selectivity index, ratio of IC50 for african green monkey (Cercopithecus aethiops) Vero cells to IC50 for chloroquine-resistant Plasmodium falciparum W2
[5] = Selectivity index, ratio of IC50 for african green monkey (Cercopithecus aethiops) Vero cells to IC50 for chloroquine-sensitive Plasmodium falciparum D6
Leishmania donovani [6] = assay: Ratio of suberoylanilide hydroxamic acid IC50 to compound IC50 for Leishmania donovani promastigotes; format: functional
Leishmania donovani [7] = assay: Ratio of suberoylanilide hydroxamic acid IC50 to compound IC50 for Leishmania donovani promastigotes
Histone deacetylase = assay: Inhibition of HDAC in human HeLa cell nuclear extracts after 15 mins by fluorescence assay; format: cell-based
Leishmania donovani [8] = test system: Leishmania donovani
[9] = Chlorocebus sabaeus, Vero, read-out: IC50
[10] = Leishmania donovani, 72 h, read-out: IC50

Structure (SMILES) | IC90 (Leishmania donovani [1]; Leishmania donovani, 72 h) | IC50 (Plasmodium falciparum [2]) | IC50 (Vero; [9]) | IC50 (Plasmodium falciparum [3]) | IC50 (Leishmania donovani [1]; [10]) | selectivity ratio [4] | IC50 (Vero; vero) | selectivity ratio [5] | Ratio (Leishmania donovani [6]) | IC50 ratio (Leishmania donovani [7]) | IC50 (Histone deacetylase) | IC90 (Leishmania donovani [8]) | IC50 (Leishmania donovani [1])
N=C(N)c1ccc(OCCCCCOc2ccc(C(=N)N)cc2)cc1 [PENTAMIDINE] | 1.8 µg/mL (≈ 5.29 µM) | – | – | – | – | – | – | – | – | – | – | – | –
CC(/C=C/C(=O)NO)=C\[C@@H](C)C(=O)c1ccc(N(C)C)cc1 [TRICHOSTATIN] | 20.5 µg/mL (≈ 67.8 µM) | 0.0495 µg/mL (≈ 0.164 µM) | 0.095 µg/mL (≈ 0.314 µM) | 0.0412 µg/mL (≈ 0.136 µM) | 1.37 µg/mL (≈ 4.53 µM) | – | – | – | – | – | – | – | –
O=C(CCCCCn1cc(-c2ccncc2)nn1)NO | > 40 µg/mL | 0.133 µg/mL (≈ 0.481 µM) | – | 0.195 µg/mL (≈ 0.708 µM) | 17.8 µg/mL (≈ 64.5 µM) | > 35.9 | Non-toxic | > 24.4 | – | – | – | – | –
O=C(CCCCCn1cc(-c2ccccc2-c2ccccc2)nn1)NO | 38 µg/mL (≈ 108 µM) | 2.6 µg/mL (≈ 7.42 µM) | 2.7 µg/mL (≈ 7.7 µM) | 2.1 µg/mL (≈ 5.99 µM) | 13 µg/mL (≈ 37.1 µM) | 1 | – | 1.3 | – | – | – | – | –
O=C(CCCCCCn1cc(-c2ccccn2)nn1)NO | 40 µg/mL (≈ 138 µM) | 0.04 µg/mL (≈ 0.138 µM) | 0.95 µg/mL (≈ 3.28 µM) | 0.069 µg/mL (≈ 0.238 µM) | 5.75 µg/mL (≈ 19.9 µM) | 23.8 | – | 13.8 | 2 | 2 | – | – | –
O=C(CCCCCCn1cc(-c2cccnc2)nn1)NO | 40 µg/mL (≈ 138 µM) | 0.081 µg/mL (≈ 0.28 µM) | 3.78 µg/mL (≈ 13.1 µM) | 0.0755 µg/mL (≈ 0.261 µM) | 15.5 µg/mL (≈ 53.6 µM) | 46.7 | – | 50.1 | – | – | 365.8 nM | – | –
O=C(CCCCCn1cc(-c2ccccn2)nn1)NO | > 40 µg/mL | 0.625 µg/mL (≈ 2.27 µM) | 2.9 µg/mL (≈ 10.5 µM) | 0.985 µg/mL (≈ 3.58 µM) | 20.5 µg/mL (≈ 74.5 µM) | 4.6 | – | 2.9 | – | – | – | – | –
CN(C)c1ccc(-c2cn(CCCCCC(=O)NO)nn2)cc1 | > 40 µg/mL | 0.0385 µg/mL (≈ 0.121 µM) | 3.4 µg/mL (≈ 10.7 µM) | 0.068 µg/mL (≈ 0.214 µM) | 15.5 µg/mL (≈ 48.8 µM) | 88.3 | – | 50 | – | – | – | – | –
C[C@@H]1CC[C@H]2[C@@H](C)C(=O)O[C@@H]3O[C@@]4(C)CC[C@@H]1[C@]32OO4 [ARTEMISININ] | – | 0.006 µg/mL (≈ 0.0213 µM) | – | 0.004 µg/mL (≈ 0.0142 µM) | – | – | – | – | – | – | – | – | –
Cc1ccccc1-c1cn(CCCCCCC(=O)NO)nn1 | 40 µg/mL (≈ 132 µM) | 0.14 µg/mL (≈ 0.463 µM) | 0.71 µg/mL (≈ 2.35 µM) | 0.12 µg/mL (≈ 0.397 µM) | 26 µg/mL (≈ 86 µM) | 5.1 | – | 5.9 | – | – | 2.8 nM | – | –
Cc1ccccc1-c1cn(CCCCCC(=O)NO)nn1 | > 40 µg/mL | 1.95 µg/mL (≈ 6.76 µM) | 3.3 µg/mL (≈ 11.4 µM) | 1.25 µg/mL (≈ 4.33 µM) | 23 µg/mL (≈ 79.8 µM) | 1.7 | – | 2.6 | – | – | – | – | –
O=C(CCCCCCCn1cc(-c2cccnc2)nn1)NO | > 40 µg/mL | 1.69 µg/mL (≈ 5.56 µM) | – | 1.49 µg/mL (≈ 4.93 µM) | 19.8 µg/mL (≈ 65.1 µM) | > 2.8 | Non-toxic | > 3.2 | – | – | 425.8 nM | – | –
Cc1cccc(-c2cn(CCCCCC(=O)NO)nn2)c1 | > 40 µg/mL | 0.068 µg/mL (≈ 0.236 µM) | 2.7 µg/mL (≈ 9.36 µM) | 0.0795 µg/mL (≈ 0.276 µM) | 17 µg/mL (≈ 59 µM) | 39.7 | – | 34 | – | – | – | – | –
O=C(CCCCn1cc(-c2ccccc2)nn1)NO | – | 0.12 µg/mL (≈ 0.461 µM) | – | 0.125 µg/mL (≈ 0.48 µM) | – | > 39.6 | Non-toxic | > 38.1 | – | – | – | inactive | Not Active
COc1ccc2cc(-c3cn(CCCCCCCC(=O)NO)nn3)ccc2c1 | – | 0.165 µg/mL (≈ 0.431 µM) | 0.65 µg/mL (≈ 1.7 µM) | 0.112 µg/mL (≈ 0.293 µM) | – | 3.9 | – | 5.8 | – | – | 226.1 nM | inactive | Not Active
O=C(CCCn1cc(-c2ccccc2)nn1)NO | – | 3.5 µg/mL (≈ 14.2 µM) | – | 2.85 µg/mL (≈ 11.6 µM) | – | > 1.4 | Non-toxic | > 1.7 | – | – | – | inactive | Not Active
O=C(CCCCCCn1cc(-c2cccc(-c3ccccc3)c2)nn1)NO | > 40 µg/mL | 0.025 µg/mL (≈ 0.0686 µM) | – | 0.025 µg/mL (≈ 0.0686 µM) | 20.5 µg/mL (≈ 56.2 µM) | > 190 | Non-toxic | > 190 | – | – | – | – | –
O=C(CCCCCCCCn1cc(-c2cccc(-c3ccccc3)c2)nn1)NO | 40 µg/mL (≈ 102 µM) | 3.2 µg/mL (≈ 8.15 µM) | – | 3.35 µg/mL (≈ 8.53 µM) | 20 µg/mL (≈ 51 µM) | > 1.5 | Non-toxic | > 1.4 | – | – | 147.7 nM | – | –
CN(C)c1ccc(-c2cn(CCCCCCC(=O)NO)nn2)cc1 | 36 µg/mL (≈ 109 µM) | 0.032 µg/mL (≈ 0.0966 µM) | 0.765 µg/mL (≈ 2.31 µM) | 0.0245 µg/mL (≈ 0.0739 µM) | 5.35 µg/mL (≈ 16.1 µM) | 23.9 | – | 31.2 | 2 | 2 | – | – | –
